Data from US9271977B2, “Sanglifehrin derivatives and methods for their production” (NeuroVive Pharmaceutical AB, priority 2010, dated 2016).
Where two headings read alike, the source gives them in different places.

Columns and labels:
Huh5.2 cells = experiment: Anti-metabolic effect (MTS) in the replicon cell line; conditions: Huh5.2 cells, 72 hours, MTS metabolic activity
Description: (§1) Antiviral efficacy against genotype 1 HCV may be tested as follows: One day before addition of the test article, Huh5.2 cells, containing the HCV genotype 1b I389Iuc-ubi-neo/NS3-3′/5.1 replicon (Vrolijk et al., 2003) and subcultured in cell growth medium [DMEM (Cat No. 41965039) supplemented with 10% FCS, 1% non-essential amino acids (11140035), 1% penicillin/streptomycin (15140148) and 2% Geneticin (10131027); Invitrogen] at a ratio of 1.3-1.4 and grown for 3-4 days in […] tissue culture flasks (Techno Plastic Products), were harvested and seeded in assay medium (DMEM, 10% FCS, 1% non-essential amino acids, 1% penicillin/streptomycin) at a density of 6500 cells/well (100 uL/well) in 96-well tissue culture microtitre plates (Falcon, Beckton Dickinson for evaluation of the anti-metabolic effect and CulturPlate, Perkin Elmer for evaluation of antiviral effect). The microtitre plates are incubated overnight (37° C., 5% CO2, 95-99% relative humidity), yielding a non-confluent cell monolayer.
(§2) Dilution series are prepared; each dilution series is performed in at least duplicate. Following assay setup, the microtitre plates are incubated for 72 hours (37° C., 5% CO2, 95-99% relative humidity).
(§3) For the evaluation of anti-metabolic effects, the assay medium is aspirated, replaced with 75 uL of a 5% MTS (Promega) solution in phenol red-free medium and incubated for 1.5 hours (37° C., 5% CO2, 95-99% relative humidity). Absorbance is measured at a wavelength of 498 nm (Safire^2, Tecan) and optical densities (OD values) are converted to percentage of untreated controls.
(§4) The selectivity index (SI), indicative of the therapeutic window of the compound, is calculated as CC50/EC50.
(§5) Compounds were analysed in the replicon assay using Huh5.2 cells as described in the General Methods.

[1] = tested on: HCV genotype 1b I389Iuc-ubi-neo/NS3-3′/5.1 replicon in Huh5.2 cells; experiment: microbe, parasite or virus in culture; assay type: cell-based, Hepatitis C Virus; conditions: for Selectivity index (CC50/EC50): Huh5.2 replicon assay
Description: as §1, §2
For the evaluation of antiviral effects, assay medium is aspirated and the cell monolayers are washed with PBS. The wash buffer is aspirated, 25 uL of Glo Lysis Buffer (Cat. No. E2661, Promega) is added after which lysis is allowed to proceed for 5 min at room temperature. Subsequently, 50 uL of Luciferase Assay System (Cat. No. E1501, Promega) is added and the luciferase luminescence signal is quantified immediately (1000 ms integration time/well, Safire^2, Tecan). Relative luminescence units are converted to percentage of untreated controls.
as §4, §5

[2] = Microsome stability assay, mouse liver microsomes; assay type: in vitro ADME; conditions: for stability in mouse liver microsomes compared to sanglifehrin A (in words): compared to sanglifehrin A (5)
Description: (§6) Mouse or human liver microsomes were diluted with buffer C (0.1 M Potassium Phosphate buffer, 1.0 mM EDTA, pH 7.4) to a concentration of 2.5 mg/mL. Microsomal stability samples were then prepared by adding 50 uL of 5 uM compound spiking solution (0.5 uL 10 mM DMSO stock solution in 9.5 uL ACN, added to 990 uL Buffer C) to 50 μL of microsomal solution (2.5 mg/mL), 110 uL Buffer C and mixed well. All samples were pre-incubated for approximately 15 minutes at 37° C. Following this, the reaction was initiated by adding 40 uL of the NADPH solution (12.5 mM) with gentle mixing. Aliquots (40 uL) were removed at 0, 15, 30, 45 and 60 minutes and quenched with ACN containing internal standard (120 uL). Protein was removed by centrifugation (4000 rpm, 15 min) and the sample plate analysed for compound concentration by LC-MS/MS. Half-lives were then calculated by standard methods, comparing the concentration of analyte wth the amount originally present.
(§7) Stability of the compounds in human and mouse liver microsomes was analysed as described in the General Methods. Sanglifehrin A, 5 was included as a comparison.

[3] = Microsome stability assay, human liver microsomes; assay type: in vitro ADME; conditions: for stability in human liver microsomes compared to sanglifehrin A (in words): compared to sanglifehrin A (5)
Description: as §6, §7

in vitro = conditions: human
Description: as §1, §2, §3, §4, §5

HBV = conditions: cited from earlier work
[4] = human, in vivo; cited from earlier work
HIV-1 = conditions: clinical, cited from earlier work
cyclophilin A (CyPA) = cyclophilin A (CyPA) (Homo sapiens, UniProt P62937); conditions: relative to CsA; cited from earlier work
cyclophilin A (CyPA), sequence (P62937 whole entry): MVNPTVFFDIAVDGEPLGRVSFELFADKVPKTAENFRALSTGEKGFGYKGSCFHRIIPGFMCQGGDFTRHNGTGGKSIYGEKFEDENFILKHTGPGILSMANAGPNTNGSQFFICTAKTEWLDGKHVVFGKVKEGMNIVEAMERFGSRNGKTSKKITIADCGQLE

[5] = Huh5.2 cells, HCV genotype 1b replicon, 72 hours, luciferase signal, read-out: EC50
[6] = mouse liver microsomes, NADPH, 37° C.
[7] = human liver microsomes, NADPH, 37° C.
[8] = Hepatitis C virus, Huh-5-2, Huh5.2 cells, HCV genotype 1b replicon, 72 hours, luciferase signal, read-out: EC50
[9] = pH 7.4, mouse liver microsomes, NADPH, 37° C.
[10] = pH 7.4, human liver microsomes, NADPH, 37° C.

Row | Molecule | stability in human liver microsomes compared to sanglifehrin A (in words) [3] | CC50 (in vitro) [µM] | potency in the Huh5.2 replicon assay (in words) [1] | EC50 [1, 8] [µM] | Selectivity index (CC50/EC50) [1] | stability in mouse liver microsomes compared to sanglifehrin A (in words) [2] | half-life [2, 9] [min] | half-life [3, 10] [min] | also measured
1 | 58-des(3-hydroxyphenyl)-58-(3-hydroxy(2-pyridyl)-sanglifehrin A [Compound 19] | increased stability | – | – | – | – | – | – | – | CC50 (Huh5.2 cells): 48.1 µM; EC50 [1, 5]: 24.3 µM; Mouse liver microsome half life [2, 6]: 4.71 min; Human liver microsome half life [3, 7]: 10.37 min
2 | CC[C@H]1C[C@H](C)[C@@]2(NC1=O)O[C@@H](C[C@H](O)[C@@H](C)CC/C=C/C=C(\C)[C@@H]1C/C=C/C=C/[C@H](O)[C@H](C)[C@@H](O)[C@@H](CCC(C)=O)C(=O)N[C@@H](C(C)C)C(=O)N[C@@H](Cc3cc(O)cc(F)c3)C(=O)N3CCCC(N3)C(=O)O1)[C@H](C)[C@H](O)[C@@H]2C (stereo partly shown) [Compound 14, 63-Fluoro Sanglifehrin a] | increased stability | 12.8 | very potent | 0.135 | 121 | more stable | 9.78 | 9.32 | –
3 | CC[C@H]1C[C@H](C)[C@@]2(NC1=O)O[C@@H](C[C@H](O)[C@@H](C)CC/C=C/C=C(\C)[C@@H]1C/C=C/C=C/[C@H](O)[C@H](C)[C@@H](O)[C@@H](CCC(C)=O)C(=O)N[C@@H](C(C)C)C(=O)N[C@@H](Cc3cc(O)c(F)c(F)c3)C(=O)N3CCCC(N3)C(=O)O1)[C@H](C)[C@H](O)[C@@H]2C (stereo partly shown) [Compound 15, 62,63-Fluoro Sanglifehrin A] | increased stability | 16.6 | very potent | 0.195 | 88 | more stable | 9.22 | 10.8 | –
4 | CC[C@H]1C[C@H](C)[C@@]2(NC1=O)O[C@@H](C[C@H](O)[C@@H](C)CC/C=C/C=C(\C)[C@@H]1C/C=C/C=C/[C@H](O)[C@H](C)[C@@H](O)[C@@H](CCC(C)=O)C(=O)N[C@@H](C(C)C)C(=O)N[C@@H](Cc3ccc(F)c(O)c3)C(=O)N3CCCC(N3)C(=O)O1)[C@H](C)[C@H](O)[C@@H]2C (stereo partly shown) [Compound 16, 62-Fluoro Sanglifehrin A] | increased stability | 29.7 | very potent | 0.89 | 32 | – | 5.48 | 6.61 | –
5 | CC[C@H]1C[C@H](C)[C@@]2(NC1=O)O[C@@H](C[C@H](O)[C@@H](C)CC/C=C/C=C(\C)[C@@H]1C/C=C/C=C/[C@H](O)[C@H](C)[C@@H](O)[C@@H](CCC(C)=O)C(=O)N[C@@H](C(C)C)C(=O)N[C@@H](Cc3ccc(C)c(O)c3)C(=O)N3CCCC(N3)C(=O)O1)[C@H](C)[C@H](O)[C@@H]2C (stereo partly shown) [Compound 17, 62-Methyl Sanglifehrin A] | increased stability | 11.6 | very potent | 0.083 | 143 | more stable | 9.67 | 9.5 | –
6 | CC[C@H]1C[C@H](C)[C@@]2(NC1=O)O[C@@H](C[C@H](O)[C@@H](C)CC/C=C/C=C(\C)[C@@H]1C/C=C/C=C/[C@H](O)[C@H](C)[C@@H](O)[C@@H](CCC(C)=O)C(=O)N[C@@H](C(C)C)C(=O)N[C@@H](Cc3ccccc3)C(=O)N3CCCC(N3)C(=O)O1)[C@H](C)[C@H](O)[C@@H]2C (stereo partly shown) [Compound 18, 61-Deshydroxy Sanglifehrin A] | increased stability | 11.7 | – | 3.4 | – | – | – | – | half-life at 1 µM [2, 9]: 3.46 min; half-life at 1 µM [3, 10]: 7.64 min
7 | C/C=C/CC(C)C(O)C1C(=O)NC(CC)C(=O)N(C)CC(=O)N(C)C(CC(C)C)C(=O)NC(C(C)C)C(=O)N(C)C(CC(C)C)C(=O)NC(C)C(=O)NC(C)C(=O)N(C)C(CC(C)C)C(=O)N(C)C(CC(C)C)C(=O)N(C)C(C(C)C)C(=O)N1C (stereo not shown) [Cyclosporine A, 1, Cyclosporine A, reference compound] | – | – | less potent | – | – | – | – | – | IC50 against HBV (HBV; Xie et al., 2007): > 1.3 µg/mL; EC50 ([1]; Hepatitis C virus, Huh-5-2, 72 h): 0.2 µM
8 | C/C=C/C[C@@H](C)[C@@H](O)[C@H]1C(=O)N[C@@H](CC)C(=O)N(C)[C@H](C)C(=O)N(CC)[C@@H](C(C)C)C(=O)N[C@@H](C(C)C)C(=O)N(C)[C@@H](CC(C)C)C(=O)N[C@@H](C)C(=O)N[C@H](C)C(=O)N(C)[C@@H](CC(C)C)C(=O)N(C)[C@@H](CC(C)C)C(=O)N(C)[C@@H](C(C)C)C(=O)N1C [DEBIO-025] | – | – | – | – | – | – | – | – | discontinuation of treatment caused by hyperbilirubinemia [4]: 4 out of 16; IC50 (HBV; Ptak et al. 2008, read-out: IC50 against HBV): 4.1 µM; reduction of HIV-1 RNA levels (in words) (HIV-1; 27 of the treated patients (Steyn et al., 2006)): no reduction; reduction of HIV-1 RNA levels (HIV-1; in nine patients (Steyn et al., 2006)): ≥ 0.5 log 10 copies/mL; reduction of HIV-1 RNA levels (HIV-1; in two patients (Steyn et al., 2006)): > 1 log 10 copies/mL
9 | CC(=O)CC[C@H]1C(=O)N[C@@H](C(C)C)C(=O)N[C@@H](Cc2cccc(O)c2)C(=O)N2CCC[C@H](N2)C(=O)O[C@H](/C(C)=C/CO)C/C=C/C=C/[C@H](O)[C@H](C)[C@H]1O [Hydroxymacrocycle, 6, reference compound] | – | 83.6 | – | 8.4 | 9.9 | – | – | – | –
10 | CC[C@H]1C[C@H](C)[C@@]2(NC1=O)O[C@@H](C[C@H](O)[C@@H](C)CC/C=C/C=C(\C)[C@@H]1C/C=C/C=C/[C@H](O)[C@H](C)[C@@H](O)[C@@H](CCC(C)=O)C(=O)N[C@@H](C(C)C)C(=O)N[C@@H](Cc3cccc(O)c3)C(=O)N3CCC[C@H](N3)C(=O)O1)[C@H](C)[C@H](O)[C@@H]2C [Sanglifehrin A, 5, Sanglifehrin A, reference compound] | – | – | less potent | – | – | – | – | – | CC50 (Huh5.2 cells): 9.1 µM; higher affinity for CyPA compared to CsA (cyclophilin A (CyPA)): approximately 20 fold; EC50 [1, 5]: 0.318 µM; Mouse liver microsome half life [2, 6]: 6.15 min; Human liver microsome half life [3, 7]: 6.38 min
